According to ChEMBL document CHEMBL1201862, “PubChem BioAssay data set” (2004):
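Values below derive from 48-hour exposures of cells grown in 96-well plates, with endpoints linearly interpolated between the two concentrations bracketing the appropriate inhibition level. GI50: concentration for 50% inhibition of growth.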 Active and inactive are the calls of the source. No stated cut-off is given here; in the data, active = GI50 up to about 1.1 µM and inactive = higher.

Tests used:
Assay in all cases: DTP human tumour cell line panel, 48 h
ACHN = system: ACHN
MDA-N = system: MDA-N
IGROV-1 = system: IGROV-1
T47D = system: T47D
M14 = system: M14
PC-3 = system: PC-3
SK-OV-3 = system: SK-OV-3
NCI/ADR-RES = system: NCI/ADR-RES
SF-539 = system: SF-539
SK-MEL-2 = system: SK-MEL-2
NCI-H522 = system: NCI-H522
HOP-92 = system: HOP-92
SF-268 = system: SF-268
SK-MEL-28 = system: SK-MEL-28
K562 = system: K562
MOLT-4 = system: MOLT-4
DU-145 = system: DU-145
CCRF-CEM = system: CCRF-CEM
KM12 = system: KM12
SR = system: SR
786-0 = system: 786-0
HCT-116 = system: HCT-116
BT-549 = system: BT-549
U-251 = system: U-251
RXF 393 = system: RXF 393
A549 = system: A549
LOX IMVI = system: LOX IMVI
MDA-MB-231 = system: MDA-MB-231
OVCAR-8 = system: OVCAR-8
MDA-MB-435 = system: MDA-MB-435
UO-31 = system: UO-31
HL-60 = system: HL-60
A498 = system: A498
TK-10 = system: TK-10
OVCAR-3 = system: OVCAR-3
NCI-H226 = system: NCI-H226
CAKI-1 = system: CAKI-1
SNB-75 = system: SNB-75
NCI-H460 = system: NCI-H460
SK-MEL-5 = system: SK-MEL-5
SNB-19 = system: SNB-19
HCT-15 = system: HCT-15
HCC 2998 = system: HCC 2998
RPMI-8226 = system: RPMI-8226
Malme-3M = system: Malme-3M
SF-295 = system: SF-295
HT-29 = system: HT-29
NCI-H23 = system: NCI-H23
SW-620 = system: SW-620
COLO 205 = system: COLO 205
SN12C = system: SN12C
Hs-578T = system: Hs-578T
OVCAR-4 = system: OVCAR-4
HOP-62 = system: HOP-62
UACC-257 = system: UACC-257
MCF7 = system: MCF7
EKVX = system: EKVX
OVCAR-5 = system: OVCAR-5
UACC-62 = system: UACC-62

CCCCCCCCCCCOCCC1C(C(C)OCCN2CCCC2)OC2OC(C)(C)OC21 (stereo not drawn)
GI50 (ACHN): 4.63 µM (inactive)
GI50 (MDA-N): 1.95 µM (inactive)
GI50 (IGROV-1): 2.42 µM (inactive)
GI50 (T47D): 2.24 µM (inactive)
GI50 (M14): 869 nM (active)
GI50 (PC-3): 1.97 µM (inactive)
GI50 (SK-OV-3): 4.24 µM (inactive)
GI50 (NCI/ADR-RES): 3.41 µM (inactive)
GI50 (SF-539): 2.07 µM (inactive)
GI50 (SK-MEL-2): 1.76 µM (inactive)
GI50 (NCI-H522): 853 nM (active)
GI50 (HOP-92): 1.82 µM (inactive)
GI50 (SF-268): 4.59 µM (inactive)
GI50 (SK-MEL-28): 1.64 µM (inactive)
GI50 (K562): 2.25 µM (inactive)
GI50 (MOLT-4): 1.68 µM (inactive)
GI50 (DU-145): 5.43 µM (inactive)
GI50 (CCRF-CEM): 3.6 µM (inactive)
GI50 (KM12): 681 nM (active)
GI50 (SR): 0.46 µM (active)
GI50 (786-0): 2.62 µM (inactive)
GI50 (HCT-116): 1.82 µM (inactive)
GI50 (BT-549): 3.13 µM (inactive)
GI50 (U-251): 2.24 µM (inactive)
GI50 (RXF 393): 2.39 µM (inactive)
GI50 (A549): 4.82 µM (inactive)
GI50 (LOX IMVI): 1.46 µM (inactive)
GI50 (MDA-MB-231): 1.85 µM (inactive)
GI50 (OVCAR-8): 3.13 µM (inactive)
GI50 (MDA-MB-435): 1.89 µM (inactive)
GI50 (UO-31): 2.51 µM (inactive)
GI50 (HL-60): 1.11 µM (active)
GI50 (A498): 13 µM (inactive)
GI50 (TK-10): 2.37 µM (inactive)
GI50 (OVCAR-3): 4.95 µM (inactive)
GI50 (NCI-H226): 8.79 µM (inactive)
GI50 (CAKI-1): 2.4 µM (inactive)
GI50 (SNB-75): 2.47 µM (inactive)
GI50 (NCI-H460): 2.07 µM (inactive)
GI50 (SK-MEL-5): 1.82 µM (inactive)
GI50 (SNB-19): 5.56 µM (inactive)
GI50 (HCT-15): 2040 nM
GI50 (HCC 2998): 1.69 µM (inactive)
GI50 (RPMI-8226): 2.07 µM (inactive)
GI50 (Malme-3M): 1.6 µM (inactive)
GI50 (SF-295): 2.32 µM (inactive)
GI50 (HT-29): 1.82 µM (inactive)
GI50 (NCI-H23): 3.91 µM (inactive)
GI50 (SW-620): 1.78 µM (inactive)
GI50 (COLO 205): 1.92 µM (inactive)
GI50 (SN12C): 2.53 µM (inactive)
GI50 (Hs-578T): 2.68 µM (inactive)
GI50 (OVCAR-4): 3.98 µM (inactive)
GI50 (HOP-62): 1.91 µM (inactive)
GI50 (UACC-257): 1.98 µM (inactive)
GI50 (MCF7): 2.65 µM (inactive)
GI50 (EKVX): 4.47 µM (inactive)
GI50 (OVCAR-5): 3.67 µM (inactive)
GI50 (UACC-62): 1.81 µM (inactive)

O=C1C2=C(C(=O)c3c(O)ccc(O)c31)[C@@H](O)[C@@H](O)[C@@H](O)C2
GI50 (ACHN): 2.52 µM (inactive)
GI50 (MDA-N): 1.49 µM (inactive)
GI50 (IGROV-1): 2.75 µM (inactive)
GI50 (T47D): 1.1 µM (active)
GI50 (M14): 1860 nM (inactive)
GI50 (PC-3): 2.66 µM (inactive)
GI50 (SK-OV-3): 18.2 µM (inactive)
GI50 (NCI/ADR-RES): 2.66 µM (inactive)
GI50 (SF-539): 3.71 µM (inactive)
GI50 (SK-MEL-2): 1.73 µM (inactive)
GI50 (NCI-H522): 367 nM (active)
GI50 (HOP-92): 1.34 µM (inactive)
GI50 (SF-268): 2.78 µM (inactive)
GI50 (SK-MEL-28): 2.26 µM (inactive)
GI50 (K562): 2.77 µM (inactive)
GI50 (MOLT-4): 2.94 µM (inactive)
GI50 (DU-145): 2.72 µM (inactive)
GI50 (CCRF-CEM): 0.0486 µM (active)
GI50 (KM12): 4460 nM (inactive)
GI50 (SR): > 100 µM (inactive)
GI50 (786-0): 2.02 µM (inactive)
GI50 (HCT-116): 0.47 µM (active)
GI50 (BT-549): 1.43 µM (inactive)
GI50 (U-251): 4.82 µM (inactive)
GI50 (RXF 393): 1.85 µM (inactive)
GI50 (A549): 3.21 µM (inactive)
GI50 (LOX IMVI): 2 µM (inactive)
GI50 (MDA-MB-231): 2.14 µM (inactive)
GI50 (OVCAR-8): 2.31 µM (inactive)
GI50 (MDA-MB-435): 1.57 µM (inactive)
GI50 (UO-31): 4.66 µM (inactive)
GI50 (HL-60): 0.635 µM (active)
GI50 (A498): 7.05 µM (inactive)
GI50 (TK-10): 1.52 µM (inactive)
GI50 (OVCAR-3): 0.504 µM (active)
GI50 (NCI-H226): 15.1 µM (inactive)
GI50 (CAKI-1): 1.37 µM (inactive)
GI50 (SNB-75): 3.43 µM (inactive)
GI50 (NCI-H460): 4.71 µM (inactive)
GI50 (SK-MEL-5): 1.74 µM (inactive)
GI50 (SNB-19): 13.1 µM (inactive)
GI50 (HCT-15): 2760 nM
GI50 (HCC 2998): 7.33 µM (inactive)
GI50 (RPMI-8226): 1.02 µM (active)
GI50 (Malme-3M): 1.14 µM (inactive)
GI50 (SF-295): 7.24 µM (inactive)
GI50 (HT-29): 1.32 µM (inactive)
GI50 (NCI-H23): 1.96 µM (inactive)
GI50 (SW-620): 0.681 µM (active)
GI50 (COLO 205): 0.0741 µM (active)
GI50 (SN12C): 2.01 µM (inactive)
GI50 (Hs-578T): 3.72 µM (inactive)
GI50 (OVCAR-4): 1.93 µM (inactive)
GI50 (HOP-62): 3.97 µM (inactive)
GI50 (UACC-257): 0.957 µM (active)
GI50 (MCF7): 1.11 µM (active)
GI50 (EKVX): 2.77 µM (inactive)
GI50 (OVCAR-5): 7.96 µM (inactive)
GI50 (UACC-62): 3.52 µM (inactive)
